Consider two compounds from patent US20040254175A1, “Derivatives of phenoxy-n-'4-(isothiazolindin-1,1-dioxid-2yl)phenyl!-valerian-acid amide and other compounds as inhibitors of the coagulation factor xa in the treatment of thromboembolic diseases and tumors” (priority 2001, published 2004).

Structures can show the parent of a compound that is named as a salt.

In one test the target is TF/FVIIa (Homo sapiens, UniProt P08709). In words: Inhibition of TF/factor VIIa (TF/FVIIa-IC50).
The next test deals with FXa (Homo sapiens, UniProt P00742). In words: Inhibition of factor Xa (FXa-IC50).
Sequence of FXa (P00742 235-488 limits assumed): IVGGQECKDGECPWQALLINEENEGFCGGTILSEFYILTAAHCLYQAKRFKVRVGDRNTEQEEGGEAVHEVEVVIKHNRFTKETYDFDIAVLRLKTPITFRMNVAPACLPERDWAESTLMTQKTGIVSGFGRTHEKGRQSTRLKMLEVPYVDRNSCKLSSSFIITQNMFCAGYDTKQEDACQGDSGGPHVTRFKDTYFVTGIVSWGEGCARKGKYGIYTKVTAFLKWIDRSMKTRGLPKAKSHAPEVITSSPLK
Sequence of FXa (P00742 41-179 partner limits assumed): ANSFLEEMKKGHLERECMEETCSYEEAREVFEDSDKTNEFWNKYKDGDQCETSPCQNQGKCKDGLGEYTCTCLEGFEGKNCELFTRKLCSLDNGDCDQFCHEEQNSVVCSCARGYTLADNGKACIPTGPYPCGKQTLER

Sequence of TF/FVIIa (P08709 213-466 limits assumed): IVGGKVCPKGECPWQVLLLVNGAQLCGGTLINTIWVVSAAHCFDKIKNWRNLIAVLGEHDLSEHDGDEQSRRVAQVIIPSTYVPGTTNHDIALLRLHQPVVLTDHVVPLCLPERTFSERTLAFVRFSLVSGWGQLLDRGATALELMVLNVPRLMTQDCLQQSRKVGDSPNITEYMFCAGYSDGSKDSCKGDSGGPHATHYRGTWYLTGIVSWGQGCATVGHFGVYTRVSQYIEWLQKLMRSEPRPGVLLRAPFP
Sequence of TF/FVIIa (P08709 61-212 partner limits assumed): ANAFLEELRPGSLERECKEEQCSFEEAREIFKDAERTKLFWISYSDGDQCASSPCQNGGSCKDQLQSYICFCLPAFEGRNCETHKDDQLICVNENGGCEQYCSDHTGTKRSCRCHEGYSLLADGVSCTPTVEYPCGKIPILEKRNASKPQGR
Sequence of TF/FVIIa (P13726 33-295 partner): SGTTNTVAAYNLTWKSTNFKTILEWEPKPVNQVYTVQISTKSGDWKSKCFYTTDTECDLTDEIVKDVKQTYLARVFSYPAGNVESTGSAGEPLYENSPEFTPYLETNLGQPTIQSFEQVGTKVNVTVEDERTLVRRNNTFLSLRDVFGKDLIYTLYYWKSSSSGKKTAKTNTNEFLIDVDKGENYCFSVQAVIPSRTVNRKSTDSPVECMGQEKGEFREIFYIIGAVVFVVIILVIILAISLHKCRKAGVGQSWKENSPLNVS
Description for FXa: The inhibition of factor Xa by the compounds according to the invention and the measurement of the anticoagulant and antithrombotic activity can be determined by conventional in-vitro or in-vivo methods.

For the compound `CCCC(Oc1cccc(C(=N)N)c1)C(=O)Nc1ccc(N2CCCS2(=O)=O)cc1` (stereo not shown) [AA, 2-(3-amidinophenoxy)-N-[4-(1,1-dioxoisothiazolidin-2-yl)phenyl]valeramide, acetate], the concentration for half-maximal inhibition (IC50) against TF/FVIIa came out at 450 nM; against FXa, 350 nM.
Taken in the same sequence, the figures for `Cc1cc(NC(=O)C(Nc2cccc(CN)c2)c2ccccc2)ccc1N1CCCS1(=O)=O` (stereo not shown) [BB, 2-(3-aminomethylphenylamino)-N-[4-(1,1-dioxoisothiazolidin-2-yl)-3-methylphenyl]-2-phenylacetamide, hydrochloride] were 870 nM and 490 nM.
